Experimental data reported in patent US20250179047A1, “5-[7-(3,4-DIHYDRO-1H-ISOQUINOLINE-2-CARBONYL)-1,2,3,4 TETRAHYDROISOQUINOLIN-6-YL]-1H-PYRROLE-3-CARBOXAMIDE DERIVATIVES, PHARMACEUTICAL COMPOSITIONS CONTAINING THEM AND THEIR USES AS PRO-APOPTOTIC AGENTS” (LES LABORATOIRES SERVIER, priority 2022, published 2025).

Assays:
KMS-12-PE Bcl-2 WT = assay: In vitro cytotoxicity CellTiter-Glo 48 h, KMS-12-PE Bcl-2 WT; format: cell-based; conditions: Homo sapiens, KMS-12-PE, C50 = concentration needed to reach 50% of the cellular viability
Summary of the method: (§1)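 KMS-12-PE myeloma cells lentivirally transduced with Bcl-2 WT or G101V (TagRFP-sorted), exposed to compound 11-point dose-response for 48 h at 37 °C, 5% CO2. Viability read by CellTiter-Glo ATP luminescence; C50 is the concentration giving 50% cellular viability.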

BCLXL WT = BCLXL WT (Homo sapiens (Human), UniProt Q07817); assay: TR-FRET competitive binding assay, BCLXL WT; conditions: for Ki: BCLXL WT, Ki determined from IC50, read-out: TR_FRET EKI BclxL; for TR_FRET EKI BCLxL/WT selectivty ratio: ratio Ki BCLxL / Ki BCL2 WT
Summary of the method: (§2)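 Terbium-labelled N-terminal Halo-fusion BCL2 or BCLXL (E. coli), 0.5 nM, competed against fluorescein-labelled PUMA peptide (2 or 20 nM) for 2 h at 23° C in 50 mM Hepes pH 7.5, 150 mM NaCl, 5% DMSO. TR-FRET 520/495 nm ratio gave IC50 by four-parameter fit; Ki derived from IC50.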

BCL2 D103Y = BCL2 D103Y (Homo sapiens, UniProt P10415, D103Y); assay: TR-FRET competitive binding assay, BCL2 D103Y; conditions: Ki determined from IC50, read-out: TR_FRET EKI_Bcl2 D103Y
Summary of the method: as §2

BCL2 WT = BCL2 WT (Homo sapiens (Human), UniProt P10415); assay: TR-FRET competitive binding assay, BCL2 WT; conditions: Ki determined from IC50, read-out: TR_FRET EKI_Bcl2 WT
Summary of the method: as §2

KMS-12-PE Bcl-2 G101V = assay: In vitro cytotoxicity CellTiter-Glo 48 h, KMS-12-PE Bcl-2 G101V; format: cell-based; conditions: for Ratio (G101V/WT): C50 KMS-12-PE Bcl-2 G101V over C50 KMS-12-PE Bcl-2 WT; for IC50: Homo sapiens, KMS-12-PE, 48 h, CellTiter-Glo, C50 = concentration needed to reach 50% of the cellular viability
Summary of the method: as §1

BCL2 G101V [1] = assay: TR-FRET competitive binding assay, BCL2 G101V; set-up: species or system human; conditions: ratio Ki BCL2 G101V / Ki BCL2 WT
Summary of the method: as §2

BCL2 G101V [2] = target: BCL2 G101V (Homo sapiens, UniProt P10415, G101V); assay: TR-FRET competitive binding assay, BCL2 G101V; conditions: BCL2 G101V; Ki determined from IC50; read-out: TR_FRET EKI_Bcl2 G101V
Summary of the method: as §2

BCLXL WT, sequence (Q07817 other isoform, or with tags, fused parts or gaps): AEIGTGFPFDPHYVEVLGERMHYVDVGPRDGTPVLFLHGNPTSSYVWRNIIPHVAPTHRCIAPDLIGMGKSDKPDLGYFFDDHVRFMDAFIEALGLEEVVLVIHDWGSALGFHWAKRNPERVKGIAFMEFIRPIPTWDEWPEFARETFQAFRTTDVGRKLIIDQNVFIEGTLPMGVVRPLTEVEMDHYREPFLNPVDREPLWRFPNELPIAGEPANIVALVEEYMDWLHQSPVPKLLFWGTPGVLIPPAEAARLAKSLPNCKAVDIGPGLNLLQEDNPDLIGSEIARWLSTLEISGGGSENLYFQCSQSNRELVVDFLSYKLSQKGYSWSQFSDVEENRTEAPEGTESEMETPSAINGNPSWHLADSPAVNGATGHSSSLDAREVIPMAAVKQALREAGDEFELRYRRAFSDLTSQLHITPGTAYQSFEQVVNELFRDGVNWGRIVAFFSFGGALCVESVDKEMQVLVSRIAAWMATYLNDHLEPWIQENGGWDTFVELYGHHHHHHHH

Row | Structure (SMILES) | Ki (BCLXL WT) | TR_FRET EKI BCLxL/WT selectivty ratio (BCLXL WT) | Ki (BCL2 D103Y) | Ki (BCL2 WT) | TR_FRET EKI G101V/WT selectivty ratio (BCL2 G101V [1]) | Ki (BCL2 G101V [2]) | IC50 (KMS-12-PE Bcl-2 WT) | Ratio (G101V/WT) (KMS-12-PE Bcl-2 G101V) | IC50 (KMS-12-PE Bcl-2 G101V)
1 | Cc1c(N(C(=O)c2cc(-c3cc4c(cc3C(=O)N3Cc5ccccc5C[C@H]3CN(C)C(C)C)CN(C(=O)Cc3ccc(OCCN(C)C5CC5)cc3)CC4)n(C)c2C)c2ccc(O)cc2)cc(C#N)n1C [Example 138, N-(5-cyano-1,2-dimethyl-pyrrol-3-yl)-5-[2-[2-[4-[2-[cyclopropyl(methyl)amino]ethoxy]phenyl]acetyl]-7-[(3S)-3-[[isopropyl(methyl)amino]methyl]-3,4-dihydro-1H-isoquinoline-2-carbonyl]-3,4-dihydro-1H-isoquinolin-6-yl]-N-(4-hydroxyphenyl)-1,2-dimethyl-pyrrole-3-carboxamide] | 2.2 nM | 27.2 | 0.24 nM | 0.08 nM | 6.2 | 0.5 nM | 0.036 µM | 5.4167 | 0.195 µM
2 | Cc1c(N(C(=O)c2cc(-c3cc4c(cc3C(=O)N3Cc5ccccc5C[C@H]3CN3CCC[C@H](C)C3)CN(C(=O)Cc3ccc(OCCN(C)C5CC5)cc3)CC4)n(C)c2C)c2ccc(O)cc2)cc(C#N)n1C [Example 139, N-(5-cyano-1,2-dimethyl-pyrrol-3-yl)-5-[2-[2-[4-[2-[cyclopropyl(methyl)amino]ethoxy]phenyl]acetyl]-7-[(3S)-3-[[(3S)-3-methyl-1-piperidyl]methyl]-3,4-dihydro-1H-isoquinoline-2-carbonyl]-3,4-dihydro-1H-isoquinolin-6-yl]-N-(4-hydroxyphenyl)-1,2-dimethyl-pyrrole-3-carboxamide] | 5.7 nM | 47.5 | 0.51 nM | 0.12 nM | 8.3 | 1 nM | 0.021 µM | 5.4762 | 0.115 µM
3 | Cc1c(N(C(=O)c2cc(-c3cc4c(cc3C(=O)N3Cc5ccccc5C[C@H]3C)CN(C(=O)Cc3ccc(OCCN5CCOCC5)cc3)CC4)n(C)c2C)c2ccc(O)cc2)cnn1C1CCOCC1 [Example 142, N-(4-hydroxyphenyl)-1,2-dimethyl-N-[5-methyl-1-(oxan-4-yl)pyrazol-4-yl]-5-(7-{[(3R)-3-methyl-3,4-dihydro-1H-isoquinolin-2-yl]carbonyl}-2-(2-{4-[2-(morpholin-4-yl)ethoxy]phenyl}acetyl)-3,4-dihydro-1H-isoquinolin-6-yl)pyrrole-3-carboxamide] | 8.1 nM | 62.3 | 0.31 nM | 0.13 nM | 10.0 | 1.3 nM | 0.156 µM | 8.9744 | 1.4 µM

Continued, in another order:

Row | Ki (BCLXL WT) | TR_FRET EKI BCLxL/WT selectivty ratio (BCLXL WT) | Ki (BCL2 D103Y) | Ki (BCL2 WT) | TR_FRET EKI G101V/WT selectivty ratio (BCL2 G101V [1]) | Ki (BCL2 G101V [2]) | Structure (SMILES) | IC50 (KMS-12-PE Bcl-2 WT) | Ratio (G101V/WT) (KMS-12-PE Bcl-2 G101V) | IC50 (KMS-12-PE Bcl-2 G101V)
4 | 1.4 nM | 23.7 | 0.16 nM | 0.06 nM | 4.6 | 0.3 nM | CCN(CC)C[C@@H]1Cc2ccccc2CN1C(=O)c1cc2c(cc1-c1cc(C(=O)N(c3ccc(O)cc3)c3cc(C#N)n(C)c3C)c(C)n1C)CCN(C(=O)Cc1ccc(OCCN3CCOCC3)cc1F)C2 [Example 137, N-(5-cyano-1,2-dimethyl-1H-pyrrol-3-yl)-5-{7-[(3S)-3-[(diethylamino)methyl]-1,2,3,4-tetrahydroisoquinoline-2-carbonyl]-2-(2-{2-fluoro-4-[2-(morpholin-4-yl)ethoxy]phenyl}acetyl)-1,2,3,4-tetrahydroisoquinolin-6-yl}-N-(4-hydroxyphenyl)-1,2-dimethyl-1H-pyrrole-3-carboxamide] | 0.0148 µM | 3.2905 | 0.0487 µM
5 | 2.8 nM | 35.9 | 0.17 nM | 0.08 nM | 5.1 | 0.4 nM | Cc1c(N(C(=O)c2cc(-c3cc4c(cc3C(=O)N3Cc5ccccc5C[C@H]3CN3CCC(C)CC3)CN(C(=O)Cc3ccc(OCCN5CCOCC5)cc3F)CC4)n(C)c2C)c2ccc(O)cc2)cc(C#N)n1C [Example 140] | 0.0055 µM | 6.2044 | 0.034 µM
